Source: the NIST ThermoML archive (doi:10.1021/acs.jced.7b00841)
Numbers after ± are expanded uncertainties.

Details: for mass density: Liquid, Vibrating tube method; for specific volume: Gas, isochoric method

FC(F)(F)/C=C/Cl [(E)-1-chloro-3,3,3-trifluoroprop-1-ene]
Details	mass density [kg/m3]	specific volume [m3/kg]
283.14 K, 29999 kPa	1358.6 ± 1	–
283.15 K, 133 kPa	1297.8 ± 0.8	–
283.15 K, 500 kPa	1298.7 ± 0.8	–
283.15 K, 5000 kPa	1309.8 ± 0.9	–
283.15 K, 10000 kPa	1321 ± 0.9	–
283.15 K, 15000 kPa	1331.4 ± 0.9	–
283.15 K, 20000 kPa	1341.1 ± 0.9	–
283.15 K, 35000 kPa	1366.8 ± 1.1	–
283.16 K, 1000 kPa	1300 ± 0.8	–
283.16 K, 2500 kPa	1303.7 ± 0.8	–
283.16 K, 25000 kPa	1350.1 ± 1	–
293.14 K, 499 kPa	1275.3 ± 0.8	–
293.14 K, 1000 kPa	1276.7 ± 0.8	–
293.14 K, 2500 kPa	1280.9 ± 0.8	–
293.14 K, 5000 kPa	1287.6 ± 0.8	–
293.14 K, 15000 kPa	1311.3 ± 0.9	–
293.14 K, 20000 kPa	1321.7 ± 0.9	–
293.14 K, 35000 kPa	1349.2 ± 1	–
293.15 K, 151 kPa	1274.3 ± 0.8	–
293.15 K, 9999 kPa	1299.9 ± 0.9	–
293.15 K, 25000 kPa	1331.4 ± 1	–
293.16 K, 30000 kPa	1340.6 ± 1	–
303.15 K, 250 kPa	1250.3 ± 0.8	–
303.15 K, 501 kPa	1251.2 ± 0.8	–
303.15 K, 1001 kPa	1252.7 ± 0.8	–
303.15 K, 2499 kPa	1257.4 ± 0.8	–
303.15 K, 5000 kPa	1264.8 ± 0.8	–
303.15 K, 35000 kPa	1331.1 ± 1	–
303.16 K, 10001 kPa	1278.4 ± 0.9	–
303.16 K, 15003 kPa	1290.7 ± 0.9	–
303.16 K, 20002 kPa	1301.9 ± 0.9	–
303.16 K, 25001 kPa	1312.3 ± 0.9	–
303.16 K, 30000 kPa	1322 ± 1	–
308.15 K, 167 kPa	–	0.11 ± 0.0005
313.14 K, 35000 kPa	1313.5 ± 1	–
313.15 K, 170 kPa	–	0.1101 ± 0.0005
313.15 K, 351 kPa	1225.4 ± 0.8	–
313.15 K, 501 kPa	1226 ± 0.8	–
313.15 K, 1000 kPa	1227.8 ± 0.8	–
313.15 K, 2500 kPa	1233.1 ± 0.8	–
313.15 K, 5000 kPa	1241.3 ± 0.8	–
313.15 K, 10000 kPa	1256.4 ± 0.9	–
313.15 K, 15000 kPa	1269.9 ± 0.9	–
313.15 K, 19999 kPa	1282.1 ± 0.9	–
313.15 K, 25000 kPa	1293.4 ± 0.9	–
313.15 K, 30000 kPa	1303.8 ± 1	–
318.15 K, 174 kPa	–	0.1101 ± 0.0005
323.15 K, 177 kPa	–	0.1101 ± 0.0005
323.15 K, 274 kPa	–	0.0684 ± 0.0005
323.15 K, 500 kPa	1199.9 ± 0.8	–
323.15 K, 1000 kPa	1202 ± 0.8	–
323.15 K, 2500 kPa	1208 ± 0.8	–
323.15 K, 5000 kPa	1217.4 ± 0.8	–
323.15 K, 10000 kPa	1234.3 ± 0.9	–
323.15 K, 15000 kPa	1249.2 ± 0.9	–
323.15 K, 19999 kPa	1262.7 ± 0.9	–
323.15 K, 24999 kPa	1274.9 ± 0.9	–
323.15 K, 30000 kPa	1286.3 ± 1	–
323.15 K, 35000 kPa	1296.8 ± 1	–
328.15 K, 180 kPa	–	0.1101 ± 0.0004
328.15 K, 280 kPa	–	0.0684 ± 0.0004
333.14 K, 2500 kPa	1182 ± 0.8	–
333.14 K, 20000 kPa	1242.9 ± 0.9	–
333.14 K, 25003 kPa	1256.2 ± 0.9	–
333.14 K, 30002 kPa	1268.3 ± 0.9	–
333.14 K, 35000 kPa	1279.5 ± 1	–
333.15 K, 183 kPa	–	0.1101 ± 0.0004
333.15 K, 285 kPa	–	0.0684 ± 0.0003
333.15 K, 372 kPa	–	0.0508 ± 0.0002
333.15 K, 500 kPa	1172.6 ± 0.8	–
333.15 K, 1000 kPa	1175.1 ± 0.8	–
333.15 K, 5000 kPa	1192.7 ± 0.8	–
333.15 K, 10000 kPa	1211.7 ± 0.8	–
333.15 K, 15001 kPa	1228.2 ± 0.9	–
338.15 K, 186 kPa	–	0.1102 ± 0.0004
338.15 K, 290 kPa	–	0.0685 ± 0.0003
338.15 K, 380 kPa	–	0.0509 ± 0.0002
338.15 K, 415 kPa	–	0.0461 ± 0.0002
343.15 K, 189 kPa	–	0.1102 ± 0.0004
343.15 K, 296 kPa	–	0.0685 ± 0.0003
343.15 K, 387 kPa	–	0.0509 ± 0.0002
343.15 K, 423 kPa	–	0.0461 ± 0.0002
343.15 K, 458 kPa	–	0.0419 ± 0.0002
343.15 K, 700 kPa	1145 ± 0.8	–
343.15 K, 1000 kPa	1146.6 ± 0.8	–
343.15 K, 2500 kPa	1154.6 ± 0.8	–
343.15 K, 5000 kPa	1166.8 ± 0.8	–
343.15 K, 10000 kPa	1188.1 ± 0.8	–
343.15 K, 15000 kPa	1206.2 ± 0.9	–
343.15 K, 20003 kPa	1222.1 ± 0.9	–
343.15 K, 25000 kPa	1236.4 ± 0.9	–
343.15 K, 30001 kPa	1249.4 ± 0.9	–
343.15 K, 35002 kPa	1261.5 ± 1	–
348.15 K, 192 kPa	–	0.1102 ± 0.0004
348.15 K, 301 kPa	–	0.0685 ± 0.0003
348.15 K, 394 kPa	–	0.0509 ± 0.0002
348.15 K, 431 kPa	–	0.0462 ± 0.0002
348.15 K, 468 kPa	–	0.0419 ± 0.0002
348.15 K, 550 kPa	–	0.0349 ± 0.0002
353.15 K, 195 kPa	–	0.1102 ± 0.0004
353.15 K, 306 kPa	–	0.0685 ± 0.0003
353.15 K, 401 kPa	–	0.0509 ± 0.0002
353.15 K, 439 kPa	–	0.0462 ± 0.0002
353.15 K, 477 kPa	–	0.042 ± 0.0002
353.15 K, 562 kPa	–	0.0349 ± 0.0002
353.15 K, 639 kPa	–	0.0297 ± 0.0002
353.15 K, 801 kPa	1114.4 ± 0.8	–
353.15 K, 1000 kPa	1116.5 ± 0.8	–
353.15 K, 2500 kPa	1125.4 ± 0.8	–
353.15 K, 5000 kPa	1139.8 ± 0.8	–
353.15 K, 10000 kPa	1163.9 ± 0.8	–
353.15 K, 15000 kPa	1184.3 ± 0.8	–
353.15 K, 20000 kPa	1201.7 ± 0.9	–
353.15 K, 25000 kPa	1217.2 ± 0.9	–
353.15 K, 30000 kPa	1231.2 ± 0.9	–
353.15 K, 34999 kPa	1243.9 ± 0.9	–
358.15 K, 198 kPa	–	0.1103 ± 0.0004
358.15 K, 311 kPa	–	0.0685 ± 0.0003
358.15 K, 409 kPa	–	0.0509 ± 0.0002
358.15 K, 447 kPa	–	0.0462 ± 0.0002
358.15 K, 486 kPa	–	0.042 ± 0.0002
358.15 K, 573 kPa	–	0.0349 ± 0.0002
358.15 K, 654 kPa	–	0.0297 ± 0.0002
363.14 K, 20001 kPa	1180.8 ± 0.9	–
363.14 K, 35000 kPa	1226.2 ± 0.9	–
363.15 K, 202 kPa	–	0.1103 ± 0.0004
363.15 K, 316 kPa	–	0.0685 ± 0.0003
363.15 K, 416 kPa	–	0.0509 ± 0.0002
363.15 K, 455 kPa	–	0.0462 ± 0.0002
363.15 K, 494 kPa	–	0.042 ± 0.0002
363.15 K, 584 kPa	–	0.0349 ± 0.0002
363.15 K, 667 kPa	–	0.0297 ± 0.0002
363.15 K, 1200 kPa	1085.8 ± 0.8	–
363.15 K, 2500 kPa	1095.5 ± 0.8	–
363.15 K, 5000 kPa	1112.1 ± 0.8	–
363.15 K, 10000 kPa	1139.5 ± 0.8	–
363.15 K, 15001 kPa	1161.9 ± 0.8	–
363.15 K, 25001 kPa	1197.5 ± 0.9	–
363.15 K, 30000 kPa	1212.5 ± 0.9	–
368.15 K, 205 kPa	–	0.1103 ± 0.0004
368.15 K, 321 kPa	–	0.0685 ± 0.0003
368.15 K, 423 kPa	–	0.0509 ± 0.0002
368.15 K, 463 kPa	–	0.0462 ± 0.0002
368.15 K, 503 kPa	–	0.042 ± 0.0002
368.15 K, 594 kPa	–	0.0349 ± 0.0002
368.15 K, 680 kPa	–	0.0298 ± 0.0002
373.15 K, 208 kPa	–	0.1103 ± 0.0004
373.15 K, 326 kPa	–	0.0686 ± 0.0003
373.15 K, 430 kPa	–	0.0509 ± 0.0002
373.15 K, 470 kPa	–	0.0462 ± 0.0002
373.15 K, 512 kPa	–	0.042 ± 0.0002
373.15 K, 605 kPa	–	0.0349 ± 0.0002
373.15 K, 693 kPa	–	0.0298 ± 0.0002
